Reference: article PMC6901910, “Molecular Basis of C-30 Product Regioselectivity of Legume Oxidases Involved in High-Value Triterpenoid Biosynthesis” (Frontiers in Plant Science, 2019)

What was measured:
Test in all cases: in vivo yeast assay, GC-MS of products
[1] = target: T1, PvCYP72A302 (Phaseolus vulgaris, UniProt A0A5P8TXN3); format: cell-based; conditions: beta-amyrin formed in the cell by co-expressed OSC1; L. japonicus CPR; 30°C, 4 days
T1 construct: gene CYP72A302; full length, expressed in S. cerevisiae INVSc1 with Lotus japonicus CPR and beta-amyrin synthase OSC1

[2] = target: T2, CYP72A66v2 (Medicago truncatula, UniProt A0A5P8TY60); format: cell-based; conditions: beta-amyrin formed in the cell by co-expressed OSC1; L. japonicus CPR; 30°C, 4 days
T2 construct: full length, expressed in S. cerevisiae INVSc1 with Lotus japonicus CPR and beta-amyrin synthase OSC1

[3] = target: T3, CYP72A63 (Medicago truncatula, UniProt H1A981); format: cell-based; conditions: beta-amyrin formed in the cell by co-expressed OSC1; L. japonicus CPR; 30°C, 4 days
T3 construct: full length, expressed in S. cerevisiae INVSc1 with Lotus japonicus CPR and beta-amyrin synthase OSC1
T3 sequence (H1A981 1-524): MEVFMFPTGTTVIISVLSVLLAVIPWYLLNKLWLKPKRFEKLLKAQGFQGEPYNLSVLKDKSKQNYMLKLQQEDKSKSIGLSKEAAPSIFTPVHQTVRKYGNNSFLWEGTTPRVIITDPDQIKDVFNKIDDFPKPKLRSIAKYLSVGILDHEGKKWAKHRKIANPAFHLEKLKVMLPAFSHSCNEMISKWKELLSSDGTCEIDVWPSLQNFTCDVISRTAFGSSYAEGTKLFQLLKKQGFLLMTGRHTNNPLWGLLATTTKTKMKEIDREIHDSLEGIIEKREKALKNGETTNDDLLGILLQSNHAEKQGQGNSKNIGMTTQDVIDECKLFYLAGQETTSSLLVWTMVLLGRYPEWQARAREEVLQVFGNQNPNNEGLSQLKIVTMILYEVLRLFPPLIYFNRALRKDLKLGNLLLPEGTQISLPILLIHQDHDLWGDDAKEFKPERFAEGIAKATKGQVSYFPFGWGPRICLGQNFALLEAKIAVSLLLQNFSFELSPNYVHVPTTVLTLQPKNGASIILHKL

[4] = target: T4, GgCYP72A154 (Glycyrrhiza glabra, UniProt A0A5P8TXJ1); format: cell-based; conditions: beta-amyrin formed in the cell by co-expressed OSC1; L. japonicus CPR; 30°C, 4 days
T4 construct: gene CYP72A154; full length, expressed in S. cerevisiae INVSc1 with Lotus japonicus CPR and beta-amyrin synthase OSC1
T4 sequence (A0A5P8TXJ1 1-523): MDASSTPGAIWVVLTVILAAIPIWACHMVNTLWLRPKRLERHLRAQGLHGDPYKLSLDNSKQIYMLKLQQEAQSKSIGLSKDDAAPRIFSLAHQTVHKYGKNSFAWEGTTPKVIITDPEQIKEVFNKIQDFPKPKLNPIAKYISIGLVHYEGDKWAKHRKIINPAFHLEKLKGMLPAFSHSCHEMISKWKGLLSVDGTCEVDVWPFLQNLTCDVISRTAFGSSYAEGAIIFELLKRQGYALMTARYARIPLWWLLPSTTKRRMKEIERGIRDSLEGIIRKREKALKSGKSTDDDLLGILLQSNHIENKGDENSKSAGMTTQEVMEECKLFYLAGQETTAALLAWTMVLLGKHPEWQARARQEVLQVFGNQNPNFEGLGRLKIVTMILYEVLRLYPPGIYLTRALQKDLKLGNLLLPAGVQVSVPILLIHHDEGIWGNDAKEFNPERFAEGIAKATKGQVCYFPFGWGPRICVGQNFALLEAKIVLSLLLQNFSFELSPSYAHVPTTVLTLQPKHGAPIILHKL

[5] = target: T5, TpCYP72A699 (Trifolium pratense, UniProt A0A5P8TXT7); format: cell-based; conditions: beta-amyrin formed in the cell by co-expressed OSC1; L. japonicus CPR; 30°C, 4 days
T5 construct: gene CYP72A699; full length, expressed in S. cerevisiae INVSc1 with Lotus japonicus CPR and beta-amyrin synthase OSC1

[6] = target: T6, VaCYP72A694 (Vigna angularis, UniProt A0A5P8TXJ3); format: cell-based; conditions: beta-amyrin formed in the cell by co-expressed OSC1; L. japonicus CPR; 30°C, 4 days
T6 construct: gene CYP72A694; full length, expressed in S. cerevisiae INVSc1 with Lotus japonicus CPR and beta-amyrin synthase OSC1

[7] = target: T7, CYP72A62v2 (Medicago truncatula, UniProt H1A982, V149L/V398L); conditions: beta-amyrin formed in the cell by co-expressed OSC1; L. japonicus CPR; 30°C, 4 days; CYP72A63-based numbering
T7 construct: full length, expressed in S. cerevisiae INVSc1 with Lotus japonicus CPR and beta-amyrin synthase OSC1

[8] = target: T8, Gmax CYP72A141 (Glycine max, UniProt A0A5P8TY68); format: cell-based; conditions: beta-amyrin formed in the cell by co-expressed OSC1; L. japonicus CPR; 30°C, 4 days
T8 construct: full length, expressed in S. cerevisiae INVSc1 with Lotus japonicus CPR and beta-amyrin synthase OSC1

[9] = target: T9, CYP72A63 (Medicago truncatula, UniProt H1A981, L149V/L398V); format: cell-based; conditions: beta-amyrin formed in the cell by co-expressed OSC1; L. japonicus CPR; 30°C, 4 days
T9 construct: full length, expressed in S. cerevisiae INVSc1 with Lotus japonicus CPR and beta-amyrin synthase OSC1

[10] = target: T10, GuCYP72A154 (Glycyrrhiza uralensis, UniProt H1A988); format: cell-based; conditions: beta-amyrin formed in the cell by co-expressed OSC1; L. japonicus CPR; 30°C, 4 days
T10 construct: gene CYP72A154; full length, expressed in S. cerevisiae INVSc1 with Lotus japonicus CPR and beta-amyrin synthase OSC1

[11] = target: T11, LjCYP72A697 (Lotus japonicus, UniProt A0A5P8TXS9); format: cell-based; conditions: beta-amyrin formed in the cell by co-expressed OSC1; L. japonicus CPR; 30°C, 4 days
T11 construct: gene CYP72A697; full length, expressed in S. cerevisiae INVSc1 with Lotus japonicus CPR and beta-amyrin synthase OSC1

[12] = target: T12, CYP72A560 (Medicago truncatula, UniProt A0A5P8TXP5); format: cell-based; conditions: beta-amyrin formed in the cell by co-expressed OSC1; L. japonicus CPR; 30°C, 4 days
T12 construct: full length, expressed in S. cerevisiae INVSc1 with Lotus japonicus CPR and beta-amyrin synthase OSC1

[13] = target: T13, CYP72A559 (Medicago truncatula, UniProt A0A5P8TXY6); format: cell-based; conditions: beta-amyrin formed in the cell by co-expressed OSC1; L. japonicus CPR; 30°C, 4 days
T13 construct: full length, expressed in S. cerevisiae INVSc1 with Lotus japonicus CPR and beta-amyrin synthase OSC1
T13 sequence (A0A5P8TXY6 1-518): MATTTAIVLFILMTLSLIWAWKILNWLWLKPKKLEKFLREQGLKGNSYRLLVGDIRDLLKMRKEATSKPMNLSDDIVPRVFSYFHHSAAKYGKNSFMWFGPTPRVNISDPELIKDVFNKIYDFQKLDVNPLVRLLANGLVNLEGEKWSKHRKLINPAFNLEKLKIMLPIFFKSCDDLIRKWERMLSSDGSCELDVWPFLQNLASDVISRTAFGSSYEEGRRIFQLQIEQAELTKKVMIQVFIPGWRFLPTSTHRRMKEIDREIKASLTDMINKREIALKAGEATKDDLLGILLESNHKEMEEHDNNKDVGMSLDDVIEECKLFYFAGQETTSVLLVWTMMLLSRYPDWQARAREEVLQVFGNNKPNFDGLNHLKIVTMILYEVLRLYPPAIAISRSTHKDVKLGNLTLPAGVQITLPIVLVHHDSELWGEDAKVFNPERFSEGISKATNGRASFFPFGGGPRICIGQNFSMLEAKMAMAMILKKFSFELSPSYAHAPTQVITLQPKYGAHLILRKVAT

[14] = target: T14, GpCYP72A154 (Glycyrrhiza pallidiflora, UniProt A0A5P8TXI9); format: cell-based; conditions: beta-amyrin formed in the cell by co-expressed OSC1; L. japonicus CPR; 30°C, 4 days
T14 construct: gene CYP72A154; full length, expressed in S. cerevisiae INVSc1 with Lotus japonicus CPR and beta-amyrin synthase OSC1
T14 sequence (A0A5P8TXI9 1-523): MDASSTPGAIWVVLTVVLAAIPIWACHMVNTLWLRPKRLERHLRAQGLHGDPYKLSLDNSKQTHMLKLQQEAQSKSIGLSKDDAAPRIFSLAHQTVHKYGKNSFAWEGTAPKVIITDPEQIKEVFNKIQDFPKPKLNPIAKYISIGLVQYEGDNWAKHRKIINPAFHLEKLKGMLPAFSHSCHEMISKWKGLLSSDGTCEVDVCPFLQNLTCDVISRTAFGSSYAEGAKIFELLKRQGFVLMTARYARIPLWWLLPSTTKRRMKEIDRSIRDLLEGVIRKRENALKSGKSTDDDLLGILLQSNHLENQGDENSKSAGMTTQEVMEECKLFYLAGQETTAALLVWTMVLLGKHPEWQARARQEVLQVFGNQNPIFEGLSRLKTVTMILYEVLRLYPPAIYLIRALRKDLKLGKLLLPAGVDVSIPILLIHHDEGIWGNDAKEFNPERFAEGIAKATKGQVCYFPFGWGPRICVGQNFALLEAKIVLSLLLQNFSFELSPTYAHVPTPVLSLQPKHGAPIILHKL

[15] = target: T15, CYP72A61v2 (Medicago truncatula, UniProt H1A980); format: cell-based; conditions: beta-amyrin formed in the cell by co-expressed OSC1; L. japonicus CPR; 30°C, 4 days
T15 construct: full length, expressed in S. cerevisiae INVSc1 with Lotus japonicus CPR and beta-amyrin synthase OSC1

T5 sequence (A0A5P8TXT7 entry or part of it): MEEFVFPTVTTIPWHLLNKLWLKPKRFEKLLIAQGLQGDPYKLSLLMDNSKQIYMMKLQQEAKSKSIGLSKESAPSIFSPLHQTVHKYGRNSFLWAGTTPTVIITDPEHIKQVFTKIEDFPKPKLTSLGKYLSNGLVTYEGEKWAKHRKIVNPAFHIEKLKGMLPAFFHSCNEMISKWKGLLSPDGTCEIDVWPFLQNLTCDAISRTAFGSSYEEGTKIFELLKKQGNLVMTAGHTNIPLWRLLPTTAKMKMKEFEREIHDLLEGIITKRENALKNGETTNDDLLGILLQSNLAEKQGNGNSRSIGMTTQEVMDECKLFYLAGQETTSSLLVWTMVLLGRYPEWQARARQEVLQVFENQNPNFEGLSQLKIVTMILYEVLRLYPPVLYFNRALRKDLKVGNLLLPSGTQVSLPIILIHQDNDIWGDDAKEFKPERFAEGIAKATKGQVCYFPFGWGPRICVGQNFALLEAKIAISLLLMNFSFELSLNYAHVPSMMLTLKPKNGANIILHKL
T7 sequence (H1A982 entry or part of it V149L/V398L): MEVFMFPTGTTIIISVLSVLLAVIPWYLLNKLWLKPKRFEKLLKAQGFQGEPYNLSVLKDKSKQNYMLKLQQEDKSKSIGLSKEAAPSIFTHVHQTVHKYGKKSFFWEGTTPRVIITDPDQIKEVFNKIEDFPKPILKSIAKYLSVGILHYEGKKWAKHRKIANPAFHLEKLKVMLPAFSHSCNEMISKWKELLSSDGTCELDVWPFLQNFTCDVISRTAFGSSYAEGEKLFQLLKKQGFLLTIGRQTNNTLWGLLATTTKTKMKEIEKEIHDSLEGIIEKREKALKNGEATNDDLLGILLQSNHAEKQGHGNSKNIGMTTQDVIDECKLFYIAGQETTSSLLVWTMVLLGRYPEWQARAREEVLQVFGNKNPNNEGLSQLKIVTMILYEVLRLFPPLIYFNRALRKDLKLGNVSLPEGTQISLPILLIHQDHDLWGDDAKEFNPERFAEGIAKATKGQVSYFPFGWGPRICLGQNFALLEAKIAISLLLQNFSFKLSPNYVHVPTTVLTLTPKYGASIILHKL
T1 sequence (A0A5P8TXN3 entry or part of it): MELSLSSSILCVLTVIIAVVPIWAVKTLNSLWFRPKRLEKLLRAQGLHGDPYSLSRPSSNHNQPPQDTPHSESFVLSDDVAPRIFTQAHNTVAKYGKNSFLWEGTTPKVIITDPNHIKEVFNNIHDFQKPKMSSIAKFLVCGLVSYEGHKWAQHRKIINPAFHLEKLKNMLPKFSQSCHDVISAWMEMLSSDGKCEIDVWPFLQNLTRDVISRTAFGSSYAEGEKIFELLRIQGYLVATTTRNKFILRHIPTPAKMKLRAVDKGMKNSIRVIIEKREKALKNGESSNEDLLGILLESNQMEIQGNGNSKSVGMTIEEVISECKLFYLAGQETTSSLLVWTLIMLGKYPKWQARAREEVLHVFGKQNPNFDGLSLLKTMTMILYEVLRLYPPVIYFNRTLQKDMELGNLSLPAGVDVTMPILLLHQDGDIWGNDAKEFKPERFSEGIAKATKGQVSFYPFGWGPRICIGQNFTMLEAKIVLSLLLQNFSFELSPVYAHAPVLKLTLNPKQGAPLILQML
T12 sequence (A0A5P8TXP5 1-518): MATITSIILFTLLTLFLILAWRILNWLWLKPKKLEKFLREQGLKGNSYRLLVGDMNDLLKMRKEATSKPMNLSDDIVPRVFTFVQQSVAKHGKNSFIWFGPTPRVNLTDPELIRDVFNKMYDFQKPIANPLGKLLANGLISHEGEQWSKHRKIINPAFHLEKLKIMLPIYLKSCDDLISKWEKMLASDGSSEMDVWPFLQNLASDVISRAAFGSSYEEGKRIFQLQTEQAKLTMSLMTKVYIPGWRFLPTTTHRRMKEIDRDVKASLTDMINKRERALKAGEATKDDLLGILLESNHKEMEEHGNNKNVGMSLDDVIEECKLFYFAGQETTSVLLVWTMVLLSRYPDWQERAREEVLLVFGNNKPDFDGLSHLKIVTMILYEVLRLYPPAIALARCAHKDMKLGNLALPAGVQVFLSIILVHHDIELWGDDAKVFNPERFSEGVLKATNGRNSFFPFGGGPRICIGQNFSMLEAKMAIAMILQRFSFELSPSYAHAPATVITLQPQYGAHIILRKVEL
T8 sequence (A0A5P8TY68 1-520): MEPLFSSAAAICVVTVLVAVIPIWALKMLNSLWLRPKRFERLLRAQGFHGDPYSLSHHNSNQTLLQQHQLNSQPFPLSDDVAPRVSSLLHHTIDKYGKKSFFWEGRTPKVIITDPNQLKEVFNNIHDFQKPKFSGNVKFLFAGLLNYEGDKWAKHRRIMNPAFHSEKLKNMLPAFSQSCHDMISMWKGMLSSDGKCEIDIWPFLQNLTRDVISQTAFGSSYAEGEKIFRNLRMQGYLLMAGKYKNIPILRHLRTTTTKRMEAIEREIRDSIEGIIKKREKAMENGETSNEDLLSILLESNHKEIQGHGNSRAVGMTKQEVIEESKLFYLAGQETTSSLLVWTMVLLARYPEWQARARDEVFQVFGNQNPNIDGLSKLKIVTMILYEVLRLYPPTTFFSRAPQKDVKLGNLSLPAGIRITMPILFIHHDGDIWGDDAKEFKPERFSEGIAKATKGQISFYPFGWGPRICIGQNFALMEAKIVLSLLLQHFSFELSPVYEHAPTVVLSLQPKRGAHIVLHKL
T10 sequence (H1A988 whole entry): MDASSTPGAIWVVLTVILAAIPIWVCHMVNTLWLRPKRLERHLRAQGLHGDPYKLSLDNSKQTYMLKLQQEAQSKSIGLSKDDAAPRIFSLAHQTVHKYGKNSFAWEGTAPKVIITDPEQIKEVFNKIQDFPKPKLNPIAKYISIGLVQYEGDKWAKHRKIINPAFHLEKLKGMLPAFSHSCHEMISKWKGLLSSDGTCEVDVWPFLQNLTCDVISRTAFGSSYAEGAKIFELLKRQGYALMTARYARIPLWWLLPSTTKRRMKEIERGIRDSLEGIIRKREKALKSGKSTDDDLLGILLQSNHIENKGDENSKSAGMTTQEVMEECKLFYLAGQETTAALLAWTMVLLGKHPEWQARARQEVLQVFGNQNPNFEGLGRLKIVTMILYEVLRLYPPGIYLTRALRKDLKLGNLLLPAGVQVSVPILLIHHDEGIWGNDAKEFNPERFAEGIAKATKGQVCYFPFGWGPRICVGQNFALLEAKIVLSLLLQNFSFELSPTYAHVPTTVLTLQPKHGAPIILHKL
T2 sequence (A0A5P8TY60 entry or part of it): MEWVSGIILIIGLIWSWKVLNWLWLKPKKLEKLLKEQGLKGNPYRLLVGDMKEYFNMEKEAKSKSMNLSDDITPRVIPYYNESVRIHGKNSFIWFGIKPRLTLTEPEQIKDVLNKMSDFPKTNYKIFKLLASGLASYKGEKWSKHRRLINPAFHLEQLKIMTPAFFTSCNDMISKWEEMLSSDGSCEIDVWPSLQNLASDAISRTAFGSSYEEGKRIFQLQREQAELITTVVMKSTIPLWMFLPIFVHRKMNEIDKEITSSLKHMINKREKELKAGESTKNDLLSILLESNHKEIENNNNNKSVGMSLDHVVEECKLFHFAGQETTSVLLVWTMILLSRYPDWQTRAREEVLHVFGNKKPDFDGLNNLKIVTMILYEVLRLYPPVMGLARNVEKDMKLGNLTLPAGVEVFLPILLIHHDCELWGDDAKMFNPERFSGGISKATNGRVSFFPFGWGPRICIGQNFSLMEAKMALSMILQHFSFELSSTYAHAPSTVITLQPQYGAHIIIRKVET
T6 sequence (A0A5P8TXJ3 entry or part of it): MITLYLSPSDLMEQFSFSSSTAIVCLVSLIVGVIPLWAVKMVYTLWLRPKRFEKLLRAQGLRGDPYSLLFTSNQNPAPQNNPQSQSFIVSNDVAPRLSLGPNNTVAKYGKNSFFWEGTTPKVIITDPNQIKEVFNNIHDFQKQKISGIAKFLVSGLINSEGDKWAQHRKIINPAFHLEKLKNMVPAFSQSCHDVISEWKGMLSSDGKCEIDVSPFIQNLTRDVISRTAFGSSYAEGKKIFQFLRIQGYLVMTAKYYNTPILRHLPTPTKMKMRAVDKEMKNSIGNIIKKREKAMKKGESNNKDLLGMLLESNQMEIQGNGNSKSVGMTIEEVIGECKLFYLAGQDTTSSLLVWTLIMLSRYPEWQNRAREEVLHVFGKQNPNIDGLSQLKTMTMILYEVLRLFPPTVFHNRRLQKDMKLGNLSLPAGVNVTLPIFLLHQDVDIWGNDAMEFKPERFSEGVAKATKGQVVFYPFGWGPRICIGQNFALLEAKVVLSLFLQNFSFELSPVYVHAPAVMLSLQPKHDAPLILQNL
T9 sequence (H1A981 whole entry L149V/L398V, the tested form may be a part): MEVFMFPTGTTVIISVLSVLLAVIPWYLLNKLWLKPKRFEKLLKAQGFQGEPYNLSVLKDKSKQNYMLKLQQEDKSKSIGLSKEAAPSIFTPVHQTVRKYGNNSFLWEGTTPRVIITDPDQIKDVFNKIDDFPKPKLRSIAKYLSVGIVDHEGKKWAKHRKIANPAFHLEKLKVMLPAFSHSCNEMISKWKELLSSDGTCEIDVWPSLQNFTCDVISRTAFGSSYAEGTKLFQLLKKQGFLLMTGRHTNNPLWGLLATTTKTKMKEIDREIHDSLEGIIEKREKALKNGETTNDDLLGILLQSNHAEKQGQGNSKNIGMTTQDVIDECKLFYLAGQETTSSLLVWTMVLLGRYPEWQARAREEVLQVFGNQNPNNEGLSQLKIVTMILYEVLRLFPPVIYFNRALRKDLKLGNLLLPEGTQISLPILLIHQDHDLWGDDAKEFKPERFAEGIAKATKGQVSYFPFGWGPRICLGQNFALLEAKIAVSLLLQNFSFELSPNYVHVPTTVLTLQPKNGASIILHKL

CC1(C)CC[C@]2(C)CC[C@]3(C)C(=CC[C@@H]4[C@@]5(C)CC[C@H](O)C(C)(C)[C@@H]5CC[C@]43C)[C@@H]2C1 [β-amyrin]
in vivo yeast assay, GC-MS of products [1]: regioselectivity in the C-29 position was common among them | in vivo yeast assay, GC-MS of products [2]: β-Amyrin C-22β oxidation activity was also detected in CYP72A66v2 (subgroup III) | in vivo yeast assay, GC-MS of products [3]: CYP72A63 showed oxidation activity against β-amyrin at the C-30 position | in vivo yeast assay, GC-MS of products [4]: GuCYP72A154 and GgCYP72A154 oxidized β-amyrin with less regioselectivity at the D or E ring | in vivo yeast assay, GC-MS of products [5]: regioselectivity in the C-29 position was common among them | in vivo yeast assay, GC-MS of products [6]: in vivo enzymatic assays showed that they have regioselectivity in the C-29 position | in vivo yeast assay, GC-MS of products [7]: CYP72A62v2^V149L/V398L produced only C-30 oxidized products, 30-hydroxy-β-amyrin and 11-deoxoglycyrrhetinic acid | in vivo yeast assay, GC-MS of products [8]: in vivo enzymatic assays showed that they have regioselectivity in the C-29 position | in vivo yeast assay, GC-MS of products [9]: CYP72A63^L149V/L398V and CYP72A63^L149V/L398I had altered product regioselectivity resembling their counterparts | in vivo yeast assay, GC-MS of products [10]: GuCYP72A154 and GgCYP72A154 oxidized β-amyrin with less regioselectivity at the D or E ring | in vivo yeast assay, GC-MS of products [11]: in vivo enzymatic assays showed that they have regioselectivity in the C-29 position | in vivo yeast assay, GC-MS of products [12]: CYP72A559 and CYP72A560 showed oxidation activity against β-amyrin at the D or E ring | in vivo yeast assay, GC-MS of products [13]: CYP72A559 and CYP72A560 showed oxidation activity against β-amyrin at the D or E ring | in vivo yeast assay, GC-MS of products [14]: the non-glycyrrhizin-producing species GpCYP72A154 oxidized β-amyrin | in vivo yeast assay, GC-MS of products [15]: showed oxidation activity against β-amyrin at position C-22β, producing sophoradiol
